The record followed here is patent US20210170043A1, “DC-SIGN ANTIBODY CONJUGATES COMPRISING STING AGONISTS” (NOVARTIS AG, priority 2018, published 2021).

pEC50: −log10 of the molar value. Some results are limits rather than exact numbers.

For one assay, the target named is T1, human STING wild type (Homo sapiens, UniProt Q86WV6, H232R).
T1 construct: expressed in transfected cells; host or cells: HEK-293T
Nature of the assay: hSTING wt assay (5xISRE-mIFNb-GL4 luciferase reporter in transfected HEK-293T cells). The conditions noted are these: read after 9-14 hours, normalized to 2'3'-cGAMP at 50 uM. It is filed as cell-based. The method, then:
Cells were incubated overnight and treated with compounds. After 9-14 hours, plates were read by adding BrightGlo reagent (Promega) and reading on an Envision plate reader. The fold change over background was calculated and normalized to the fold-change induced by 2′3′-cGAMP at 50 uM. Plates were run in triplicate.

The subject of the next assay is THP1-Dual cells. Nature of the assay: THP1-Dual assay (Lucia reporter). It is filed as cell-based. The settings on record: Homo sapiens, 384 well, 16-24 hours, normalized to 2'3'-cGAMP at 50 uM. The method, then: THP1-Dual cells were purchased from Invivogen. THP1-Dual cells were plated in 384 well plates in 20 uL of tissue culture media and incubated overnight. Compounds were added the next day and incubated 16-24 hours. Lucia reporter signal was read out by adding Quantiluc reagent (Invivogen) followed by reading on an Envision plate reader. The fold change over background was calculated and normalized to the fold-change induced by 2′3′-cGAMP at 50 uM. Plates were run in triplicate.

Assay [1] relates to transgenic mice expressing human DC-SIGN gene (Tg+). Nature of the assay: Plasma cytokine production in transgenic mice expressing human DC-SIGN (ELISA / MesoScaleDiscovery). It is filed as in vivo, mouse. The method, then: FIGS. 5A-5E show exemplary data on DC-SIGN immunoconjugates inducing cytokine production in Tg+ mice. […] Plasma levels were analyzed by ELISA (IP-10 and IFNβ) or MesoScaleDiscovery Multiplex analysis (all other analytes). **** denotes p value of <0.0001 using an ANOVA with Tukey's test compared to Tg-2B2 hlgG1 DAPA C1 group.
(§1) Mice were bled 6 hours after dosing to collect plasma for analysis of circulating cytokine levels.
Background: An ELISA detects its analyte on a solid surface through an enzyme-linked reagent.

The subject of the next assay is THP1-Dual/STING-KO cells. Nature of the assay: THP1-Dual/STING-KO assay. It is filed as cell-based. The settings on record: Homo sapiens, pooled STING-KO clones. The procedure:
The fold change over background was calculated and normalized to the fold-change induced by 2′3′-cGAMP at 50 uM. Plates were run in triplicate.

The test system of assay [2] is transgenic mice expressing human DC-SIGN gene (Tg+). Nature of the assay: Plasma cytokine and chemokine levels in human DC-SIGN transgenic mice. It is filed as in vivo, mouse. The settings on record: 100 μg free compound i.v., 6 hours post dose, vs untreated and 10 μg. The procedure: Blood was collected at 6 hours post dose to analyze plasma cytokine and chemokine levels and spleens were analyzed at 24 hours post dose to look at dendritic cell activation.
as §1
Plasma was collected at indicated timepoints and analyzed with a Mouse IP-10 Platinum ELISA kit (eBioscience Affymetrix). Plasma was diluted 1:100 and the protocol was followed according to the manufacturer's recommendations. Data was collected using an Enspire spectro-photometer using […] as the primary wavelength.
Plasma was collected at indicated timepoints and analyzed with a Mouse IFN-beta ELISA kit (R&D Systems) according to the manufacturer's recommendations. Data was collected using an Enspire spectro-photometer using […] as the primary wavelength.
Plasma was collected at indicated timepoints and analyzed with a mouse Proinflammatory Panel 1 (mouse) Kit V-PLEX™ 10 plex from MesoScale Discovery. 25 μL of plasma per sample was used and protocol was followed according to the manufacturer's recommendations. Data were collected and analyzed using a Sector Imager 6000.
Human DC-SIGN transgenic mice (Tg+) (Schaefer et al., J. Immunol. (2008) 180 (10) 6836-6845) were bred to Signr1 deficient mice (−/− or KO) (Orr et al., Glycobiology (2013) 23(3): 363-380). Human DC-SIGN expression was checked using PCR to genotype the mice. Human DC-SIGN Tg+ Signr1−/− mice or human DC-SIGN Tg− Signr1−/− mice were tested with compounds as indicated in the above examples.

T1 sequence (Q86WV6 whole entry H232R): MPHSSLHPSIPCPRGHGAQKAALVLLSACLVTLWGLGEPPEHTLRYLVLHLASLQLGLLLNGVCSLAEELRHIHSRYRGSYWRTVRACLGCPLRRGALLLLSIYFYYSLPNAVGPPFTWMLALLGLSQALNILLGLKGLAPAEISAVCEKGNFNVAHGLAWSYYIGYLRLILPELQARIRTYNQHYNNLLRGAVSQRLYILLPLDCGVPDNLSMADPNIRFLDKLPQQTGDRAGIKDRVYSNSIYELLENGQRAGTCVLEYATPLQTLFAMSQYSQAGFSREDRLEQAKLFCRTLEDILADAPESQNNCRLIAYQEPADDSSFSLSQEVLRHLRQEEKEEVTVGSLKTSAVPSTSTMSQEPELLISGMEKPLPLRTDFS

`NCCCNc1ncnc2c1ncn2[C@@H]1O[C@@H]2CO[P@@](=O)(S)O[C@H]3[C@@H](F)[C@H](n4cnc5c(N)ncnc54)O[C@@H]3CO[P@@](=O)(S)O[C@H]2[C@H]1F` had a pEC50 on human STING wild type below 4.60.
As to `CCCCCCCCCCO[C@@H]1[C@@H]2O[P@](=O)(S)OC[C@H]3O[C@@H](n4cnc5c(N)ncnc54)[C@H](O[P@](=O)(S)OC[C@H]2O[C@H]1n1cnc2c(N)ncnc21)[C@@H]3O`, in the assay on THP1-Dual cells, the pEC50 is below 4.60.
Regarding `Nc1ncnc2c1ncn2C1OC2COP(=O)(S)OC3C(COP(=O)(S)OC2C1F)OC(n1cnc2c(N)ncnc21)C3F` (stereo not drawn) [Compound T1-1, di-2′-F—RR-CDA], in assay [1], the “circulating plasma IL-12p70” value is recorded as “increased”, the “circulating plasma IP-10” value was “increased” and the “circulating plasma TNFα” value is “increased”. Also, in the assay on THP1-Dual cells, the pEC50 was 6.34. The compound also had a pEC50 in the assay with THP1-Dual/STING-KO cells below 4.30. This compound also gave a pEC50 on human STING wild type of 6.53. In assay [2], the “plasma IL-12p70” value is given as “increased”, the “plasma IP-10” value is “increased” and the “plasma TNFα” value is “increased”.
For `Nc1ncnc2c1ncn2[C@@H]1O[C@@H]2CO[P@@](=O)(S)O[C@@H]3[C@H](O)[C@@H](CO[P@@](=O)(S)O[C@H]2[C@H]1F)O[C@H]3n1cnc2c(N)ncnc21` [Compound T1-2], in the assay with THP1-Dual cells, the pEC50 is 5.70.

A word on the pEC50: it is the negative decadic logarithm of the EC50, by convention in mol/L. Higher therefore signals a low EC50.
